In the CheMixHub viscosity set:

Assay: xn = mol fraction of the nth substance listed

CC(=O)c1ccc(Cl)cc1 + CCOC(=O)OCC
303.15 K, 101 kPa
Details	viscosity [mPa·s]
x2 = 0.0511	2.657
x2 = 0.1131	2.468
x2 = 0.1611	2.309
x2 = 0.2221	2.126
x2 = 0.2808	1.948
x2 = 0.3435	1.765
x2 = 0.4256	1.557
x2 = 0.5032	1.372
x2 = 0.6089	1.162
x2 = 0.6807	1.045
x2 = 0.7618	0.927
x2 = 0.8127	0.877
x2 = 0.8641	0.825
x2 = 0.9197	0.774
x2 = 0.9678	0.725

BrC(Br)Br + CCOC(C)=O
viscosity [mPa·s]
Details	x1 = 0.2695	x1 = 0.2713	x1 = 0.5228	x1 = 0.529	x1 = 0.7671	x1 = 0.7683
298 K, 101.3 kPa	–	0.754	–	1.141	–	1.565
318 K, 101.33 kPa	0.6005	–	0.8779	–	1.179	–

CC(C)(C)N + CCOC(C)=O
303.15 K, 101 kPa
Details	viscosity [mPa·s]
x1 = 0.168	0.4142
x1 = 0.2336	0.4185
x1 = 0.3514	0.424
x1 = 0.5046	0.4329
x1 = 0.5951	0.4363
x1 = 0.6618	0.4371
x1 = 0.8008	0.442
x1 = 0.8723	0.4431

CCCCCCCCO + CCOC(C)=O
viscosity [mPa·s]
Details	298.15 K	303.15 K	308.15 K	313.15 K
101 kPa, x1 = 0.0646	0.512	0.484	0.455	0.429
101 kPa, x1 = 0.1344	0.629	0.589	0.55	0.513
101 kPa, x1 = 0.2103	0.783	0.727	0.673	0.623
101 kPa, x1 = 0.2928	0.991	0.911	0.834	0.766
101 kPa, x1 = 0.3832	1.279	1.164	1.054	0.958
101 kPa, x1 = 0.4823	1.689	1.519	1.36	1.223
101 kPa, x1 = 0.5917	2.298	–	1.806	1.605
101 kPa, x1 = 0.713	3.246	2.844	2.482	2.179
101 kPa, x1 = 0.8483	4.801	4.144	3.563	3.083
101.33 kPa, x2 = 0.141	4.383	3.809	3.324	–
101.33 kPa, x2 = 0.2701	2.825	2.512	2.215	–
101.33 kPa, x2 = 0.3878	1.985	1.777	1.596	–
101.33 kPa, x2 = 0.4964	1.449	1.292	1.152	–
101.33 kPa, x2 = 0.5965	1.088	0.992	0.907	–
101.33 kPa, x2 = 0.6891	0.841	0.798	0.724	–
101.33 kPa, x2 = 0.7641	0.712	0.653	0.606	–
101.33 kPa, x2 = 0.8552	0.585	0.542	0.51	–
101.33 kPa, x2 = 0.9301	0.496	0.468	0.446	–

CCOC(F)(F)C(F)(C(F)(F)F)C(F)(F)F + CCOC(F)(F)C(F)(F)C(F)(F)C(F)(F)F
100 kPa, x2 = 0.422
Details	viscosity [mPa·s]
298.16 K	0.6423
303.18 K	0.5987

CC(C)(C)N + CCOCCO
308.15 K, 101 kPa
Details	viscosity [mPa·s]
x2 = 0.1082	0.5474
x2 = 0.2145	0.6798
x2 = 0.3189	0.8102
x2 = 0.4214	0.9309
x2 = 0.5221	1.046
x2 = 0.6211	1.149
x2 = 0.7182	1.245
x2 = 0.8138	1.327
x2 = 0.9077	1.399
